Assay results reported in patent US9533968B2, “N-thio-anthranilamide compounds and their use as pesticides” (BASF SE, priority 2012, dated 2017).

How the values were obtained:
Type in all cases: in vivo
[1] = tested on: Cowpea Aphid (Aphis Craccivora); assay: Cowpea aphid test, sprayed potted cowpea plants; conditions: read-out: mortality in comparison with untreated controls
Procedure: If not otherwise specified the test solutions are prepared as follow:
The active compound is dissolved at the desired concentration in a mixture of 1:1 (vol:vol) distilled water:aceton. The test solution is prepared at the day of use and in general at concentrations of […].
Potted cowpea plants colonized with approximately 100-150 aphids of various stages are sprayed after the pest population has been recorded. Population reduction is assessed after 24, 72, and 120 hours.

[2] = tested on: Diamond Back Moth (Plutella Xylostella); assay: Diamond back moth test, cabbage leaf dip; conditions: foliar, 72 h, read-out: mortality in comparison with untreated controls
Procedure: The active compound is dissolved at the desired concentration in a mixture of 1:1 (vol/vol) distilled water:aceteone. Surfactant (Alkamuls® EL 620) is added at a rate of 0.1% (vol/vol). The test solution is prepared at the day of use.
Leaves of cabbage are dipped in test solution and air-dried. Treated leaves are placed in petri dishes lined with moist filter paper and inoculated with ten 3rd instar larvae. Mortality is recorded 72 hours after treatment. Feeding damages are also recorded using a scale of 0-100%.

[3] = tested on: Mediterranean fruitfly (Ceratitis capitata); assay: Mediterranean fruitfly test, microtiter plates with insect diet and eggs; conditions: 120 h, read-out: mortality in comparison with untreated controls
Procedure: For evaluating control of Mediterranean fruitfly (Ceratitis capitata) the test unit consists of microtiter plates containing an insect diet and 50-80 C. capitata eggs.
(§1) The compounds are formulated using a solution containing 75% v/v water and 25% v/v DMSO. Different concentrations of formulated compounds are sprayed onto the insect diet at 5 μl, using a custom built micro atomizer, at two replications.
After application, microtiter plates are incubated at about 28±1° C. and about 80±5% relative humidity for 5 days. Egg and larval mortality is then visually assessed.

[4] = tested on: Orchid Thrips (Dichromothrips Corbetti); assay: Orchid thrips test, floral-immersion technique; conditions: 96 h, read-out: mortality in comparison with untreated controls
Procedure: Dichromothrips corbetti adults used for bioassay are obtained from a colony maintained continuously under laboratory conditions. For testing purposes, the test compound is diluted to a concentration of 300 ppm (wt compound: vol diluent) in a 1:1 mixture of acetone:water (vol:vol), plus 0.01% vol/vol Kinetic® surfactant.
Thrips potency of each compound is evaluated by using a floral-immersion technique. Plastic petri dishes are used as test arenas. All petals of individual, intact orchid flowers are dipped into treatment solution and allowed to dry. Treated flowers are placed into individual petri dishes along with 10-15 adult thrips. The petri dishes are then covered with lids. All test arenas are held under continuous light and a temperature of about 28° C. for duration of the assay. After 4 days, the numbers of live thrips are counted on each flower, and along inner walls of each petri dish. The level of thrips mortality is extrapolated from pre-treatment thrips numbers.

[5] = tested on: vetch aphid (Megoura viciae); assay: Vetch aphid test, broad bean leaf disks in microtiter plates; conditions: foliar, 120 h, read-out: mortality in comparison with untreated controls
Procedure: For evaluating control of vetch aphid (Megoura viciae) through contact or systemic means the test unit consists of 24-well-microtiter plates containing broad bean leaf disks.
The compounds are formulated using a solution containing 75% v/v water and 25% v/v DMSO. Different concentrations of formulated compounds are sprayed onto the leaf disks at 2.5 μl, using a custom built micro atomizer, at two replications.
After application, the leaf disks are air-dried and 5-8 adult aphids placed on the leaf disks inside the microtiter plate wells. The aphids are then allowed to suck on the treated leaf disks and incubated at about 23±1° C. and about 50±5% relative humidity for 5 days. Aphid mortality and fecundity is then visually assessed.

[6] = tested on: Tobacco Budworm (Heliothis virescens); assay: Tobacco budworm test, microtiter plates with insect diet and eggs; conditions: 120 h, read-out: mortality in comparison with untreated controls
Procedure: as §1, with “The test unit consisted of 96-well-microtiter plates containing an insect diet and 15-25 H. virescens eggs. The” for “The”, “compounds were” for “compounds are”, “at 10” for “at 5”
After application, microtiter plates were incubated at about 28±1° C. and about 80±5% relative humidity for 5 days. Egg and larval mortality was then visually assessed.

[7] = tested on: boll weevil (Anthonomus grandis); assay: Boll weevil test, microtiter plates with insect diet and eggs; conditions: 120 h, read-out: mortality in comparison with untreated controls
Procedure: For evaluating control of boll weevil (Anthonomus grandis) the test unit consists of 24-well-microtiter plates containing an insect diet and 20-30 A. grandis eggs.
The compounds are formulated using a solution containing 75% v/v water and 25% v/v DMSO. Different concentrations of formulated compounds are sprayed onto the insect diet at 20 μl, using a custom built micro atomizer, at two replications.
After application, microtiter plates are incubated at about 23±1° C. and about 50±5% relative humidity for 5 days. Egg and larval mortality is then visually assessed.

[8] = tested on: Rice Green Leafhopper (Nephotettix virescens); assay: Rice green leafhopper test, sprayed rice seedlings; conditions: 72 h, read-out: mortality in comparison with untreated controls
Procedure: Rice seedlings are cleaned and washed 24 hours before spraying. The active compounds are formulated in 50:50 acetone:water (vol:vol), and 0.1% vol/vol surfactant (EL 620) is added. Potted rice seedlings are sprayed with 5 ml test solution, air dried, placed in cages and inoculated with 10 adults. Treated rice plants are kept at about 28-29° C. and relative humidity of about 50-60%. Percent mortality is recorded after 72 hours.

[9] = tested on: Silverleaf Whitefly (Bemisia argentifolii); assay: Silverleaf whitefly test, sprayed cotton plants; conditions: at 100 ppm; silverleaf whitefly adults; 3 days after treatment
From the text: (§2) The active compounds are formulated in cyclohexanone as a 10,000 ppm solution supplied in tubes. The tubes are inserted into an automated electrostatic sprayer equipped with an atomizing nozzle and they serve as stock solutions for which lower dilutions are made in 50% acetone:50% water (v/v). A nonionic surfactant (Kinetic®) is included in the solution at a volume of 0.01% (v/v).
Cotton plants at the cotyledon stage (one plant per pot) are sprayed by an automated electrostatic plant sprayer equipped with an atomizing spray nozzle. The plants are dried in the sprayer fume hood and then removed from the sprayer. Each pot is placed into a plastic cup and about 10 to 12 whitefly adults (approximately 3-5 days old) are introduced. The insects are collected using an aspirator and a nontoxic Tygon® tubing connected to a barrier pipette tip. The tip, containing the collected insects, is then gently inserted into the soil containing the treated plant, allowing insects to crawl out of the tip to reach the foliage for feeding. Cups are covered with a reusable screened lid. Test plants are maintained in a growth room at about 25° C. and about 20-40% relative humidity for 3 days, avoiding direct exposure to fluorescent light (24 hour photoperiod) to prevent trapping of heat inside the cup. Mortality is assessed 3 days after treatment, compared to untreated control plants.

[10] = tested on: Southern Armyworm (Spodoptera eridania); assay: Southern armyworm test, sprayed lima bean plants; conditions: 96 h, read-out: mortality in comparison with untreated controls
Procedure: as §2
Lima bean plants (variety Sieva) are grown 2 plants to a pot and selected for treatment at the 1st true leaf stage. Test solutions are sprayed onto the foliage by an automated electrostatic plant sprayer equipped with an atomizing spray nozzle. The plants are dried in the sprayer fume hood and then removed from the sprayer. Each pot is placed into perforated plastic bags with a zip closure. About 10 to 11 armyworm larvae are placed into the bag and the bags zipped closed. Test plants are maintained in a growth room at about 25° C. and about 20-40% relative humidity for 4 days, avoiding direct exposure to fluorescent light (24 hour photoperiod) to prevent trapping of heat inside the bags. Mortality and reduced feeding are assessed 4 days after treatment, compared to untreated control plants.

[11] = tested on: Colorado Potato Beetle (Leptinotarsa decemlineata); assay: Colorado potato beetle test, sprayed eggplant foliage; conditions: foliar, 96 h, read-out: mortality in comparison with untreated controls
Procedure: as §2
Eggplants are grown 2 plants to a pot and are selected for treatment at the 1st true leaf stage. Test solutions are sprayed onto the foliage by an automated electrostatic plant sprayer equipped with an atomizing spray nozzle. The plants are dried in the sprayer fume hood and then removed from the sprayer. The treated foliage is then cut and removed from the pot and placed in a Petri dish lined with moistened filter pa-per. Five beetle larvae are introduced into each Petri dish and the dish is covered by a Petri dish lid. Petri dishes are maintained in a growth room at about 25° C. and about 20-40% relative humidity for 4 days, avoiding direct exposure to fluorescent light (24 hour photoperiod) to prevent trapping of heat inside the dishes. Mortality and reduced feeding are assessed 4 days after treatment, compared to untreated control plants.

SMILES | mortality at 500 ppm [1] | mortality at 500 ppm [2] | mortality at 2500 ppm [3] | mortality at 500 ppm [4] | mortality at 2500 ppm [5] | mortality at 2500 ppm [6] | mortality at 2500 ppm [7] | mortality at 500 ppm [8] | mortality in comparison with untreated controls [9] | mortality at 1 ppm [10] | mortality at 1 ppm [11]
Cc1cc(Cl)cc(C(=O)N[S+](C)[O-])c1NC(=O)c1cc(C(F)(F)F)nn1-c1ncccc1Cl (stereo not drawn) [Compound 1-28, N-[4-chloro-2-methyl-6-(methylsulfinylcarbamoyl)phenyl]-2-(3-chloro-2-pyridyl)-5-(trifluoromethyl)pyrazole-3-carboxamide] | > 75% | > 75% | > 75% | > 75% | > 75% | > 75% | > 75% | > 75% |  |  | 
CC(C)[S+]([O-])NC(=O)c1cc(Br)cc(Br)c1NC(=O)c1cc(C(F)(F)F)nn1-c1ncccc1Cl (stereo not drawn) [Compound 1-7] |  |  |  |  |  |  |  |  | over 75% |  | 
CSNC(=O)c1cc(Cl)cc(C)c1NC(=O)c1cc(C(F)(F)F)nn1-c1ncccc1Cl [Compound 1-22, N-[4-chloro-2-methyl-6-(methylsulfanylcarbamoyl)phenyl]-2-(3-chloro-2-pyridyl)-5-(trifluoromethyl)pyrazole-3-carboxamide] |  | > 75% | > 75% | > 75% | > 75% | > 75% | > 75% | > 75% |  | > 75% | > 75%
